The values below come from patent US8603528B2, “Compositions and method for the reduction of post-operative pain” (ABYRX, Inc., priority 2004, dated 2013).

Structures are written as SMILES. Entries after “also recorded” stand apart in the source; their conditions may differ.

This data set can be described thus: Evaluation of elution rates of analgesic from a 0.5 gm composition button in phosphate buffer, HPLC-UV. It counts as physicochemical. The procedure:
The surface area exposed to the buffer is about 0.785 sq. cm. One cc aliquots of the buffer solution are taken over a three day period, every 2 hours during business hours of day one, then several times on each of days two and three. […] The same procedure was followed for measurement of the elution of bupivacaine free base and hydrochloride.

Consider `CC(=O)Oc1c(C)c(C)c2c(c1C)CCC(C)(CCC[C@H](C)CCC[C@H](C)CCCC(C)C)O2` (some centres unmarked) [tocopheryl acetate], for which the “effect of the added material on the elution rate of the anesthetic from the putty” value is “slow down the elution rate; also recorded: reduces the elution rate; also recorded: retard the elution”. Take `CCCCCCCCCCCC(=O)OCC` [ethyl laurate]: the “effect of the added material on the elution rate of the anesthetic from the putty” value is on record as “retard the elution”. On the same count and under the same terms, with `CCCCCCCCCCCCOC(C)=O` [lauryl acetate] the entry was “retard the elution”. `CCN(CC)CC(=O)Nc1c(C)cccc1C` [lidocaine free base, lidocaine, reference compound]: the “period over which the free base of lidocaine is eluted” value (liquid component of the putty changed from triethyl citrate to Pluronic L-35 and tocopheryl acetate) was “eight”. The “period over which the free base of lidocaine is released” value (putty-like composition comprising lidocaine free base, calcium stearate and liquid triethyl citrate) is “three”.
